The nature of assay [1]: Induction of apoptosis in human ATRA-resistant NB4-LR2 cells assessed as necrotic cells at 1 uM incubated for 24 hrs by Annexin V-FITC/PI staining based flow cytometric analysis (reference value: 0.08 %). Format: functional. (A flow cytometer gives signals particle by particle.)
In assay [2] the test system is K562. As to the kind of experiment: Induction of apoptosis in human K562 cells assessed as viable cells at 2 uM incubated for 24 hrs by Annexin V-FITC/PI staining based flow cytometric analysis (reference value: 90.02 %). It counts as functional. Particulars: read-out: Activity.
Assay [3] concerns HeLa. As to the kind of experiment: Induction of 3-flag-tagged PML-RARalpha (unknown origin) degradation transfected in human HeLa cells at 1 to 2 uM incubated for 24 hrs by Western blot analysis. It counts as cell-based. The settings on record: dose 1-2 µM. For orientation: In western blotting, separated proteins are transferred to a membrane and probed.
In assay [4] the test system is ATRA-resistant NB4-LR2. In words: Induction of apoptosis in human ATRA-resistant NB4-LR2 cells assessed as PARP cleavage at 0.5 uM incubated for 24 hrs by Western blot analysis. Format: functional, cell-based.
The subject of assay [5] is K562. As to the kind of experiment: Induction of cell differentiation in human K562 cells at 0.5 uM incubated for 6 days by CD11b staining based flow cytometric analysis. Format: functional. The settings on record: time 6.0 day.
The target in assay [6] is T1, Retinoic acid receptor alpha (Homo sapiens, UniProt P10276).
T1 sequence (P10276 whole entry): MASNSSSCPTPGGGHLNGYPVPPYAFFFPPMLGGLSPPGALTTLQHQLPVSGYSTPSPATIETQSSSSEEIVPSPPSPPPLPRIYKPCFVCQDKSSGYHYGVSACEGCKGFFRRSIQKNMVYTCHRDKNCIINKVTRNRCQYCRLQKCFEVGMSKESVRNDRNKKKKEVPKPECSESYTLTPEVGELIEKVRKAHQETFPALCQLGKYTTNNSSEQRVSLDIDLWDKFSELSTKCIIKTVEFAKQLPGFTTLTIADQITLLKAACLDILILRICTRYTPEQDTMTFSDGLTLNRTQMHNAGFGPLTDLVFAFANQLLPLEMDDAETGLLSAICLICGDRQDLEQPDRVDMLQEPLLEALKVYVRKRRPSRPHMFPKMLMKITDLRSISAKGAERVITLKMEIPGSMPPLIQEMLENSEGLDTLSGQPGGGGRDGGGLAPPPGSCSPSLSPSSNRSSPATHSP
In words: Agonist activity at Gal4-fused full length human RARalpha LBD transfected in HEK293T cells co-transfected with pG5luc reporter and Renilla-luc assessed as transactivation incubated for 12 hrs by dual luciferase reporter gene assay. It counts as cell-based. In general terms: In a reporter assay the amount or activity of a reporter protein is the signal.

Assay [7] concerns the target Oxysterols receptor LXR-alpha (Homo sapiens) (UniProt Q13133). As to the kind of experiment: Agonist activity at Gal4-fused full length LXRalpha LBD (unknown origin) transfected in HEK293T cells co-transfected with pG5luc reporter and Renilla-luc at 0.1 to 1 uM incubated for 12 hrs by luciferase reporter gene assay. Format: cell-based. The settings on record: dose 0.1-1 µM.

The test system of assay [8] is HeLa. In words: Induction of 3-flag-tagged PML-RARalpha R276E mutant (unknown origin) degradation transfected in human HeLa cells at 1 to 2 uM incubated for 24 hrs by Western blot analysis. The settings on record: dose 1-2 µM. Format: cell-based.
Assay [9] addresses Oxysterols receptor LXR-beta (Homo sapiens) (UniProt P55055). As to the kind of experiment: Agonist activity at Gal4-fused full length LXRbeta LBD (unknown origin) transfected in HEK293T cells co-transfected with pG5luc reporter and Renilla-luc at 0.1 to 1 uM incubated for 12 hrs by luciferase reporter gene assay. Particulars: dose 0.1-1 µM. It counts as cell-based.
The subject of assay [10] is K562. As to the kind of experiment: Induction of apoptosis in human K562 cells assessed as necrotic cells at 1 uM incubated for 24 hrs by Annexin V-FITC/PI staining based flow cytometric analysis (reference value: 2.19 %). It counts as functional.
The test system of the next assay is Jurkat. As to the kind of experiment: Induction of cell differentiation in human Jurkat cells at 0.5 uM incubated for 6 days by CD11b staining based flow cytometric analysis. Format: functional. The settings on record: time 6.0 day.
Assay [11] has as its system ATRA-resistant NB4-LR2. In words: Antiproliferative activity against human ATRA-resistant NB4-LR2 cells assessed as effect on cell viability up to 2 uM incubated for 3 days by CCK8 assay. Format: functional, cell-based. Particulars: time 3.0 day.
Assay [12] has as its system NB-4. In words: Cell cycle arrest in human NB4 cells assessed as increase in cyclin B1 expression at 2 uM incubated for 3 to 24 hrs by Western blot analysis. Format: functional, cell-based. Particulars: time 3-24 hrs.
Assay [13] relates to NB-4. In words: Cell cycle arrest in human NB4 cells assessed as accumulation of cells at G2/M phase at 0.5 uM incubated for 6 days for DAPI staining based flow cytometric analysis (reference value: 15 %). Format: functional. The settings on record: time 6 day.
Assay [14] concerns NB-4. In words: Induction of mitosis in human NB4 cells assessed as upregulation of pT210-PLK1 expression at 2 uM measured after 3 hrs by Western blot analysis. Format: functional, cell-based.
Assay [15] concerns K562. As to the kind of experiment: Induction of apoptosis in human K562 cells assessed as late apoptotic cells at 2 uM incubated for 24 hrs by Annexin V-FITC/PI staining based flow cytometric analysis (reference value: 5.98 %). It counts as functional.
Assay [16] concerns NB-4. In words: Induction of mitosis in human NB4 cells assessed as upregulation of pS10-histone expression at 2 uM measured after 3 hrs by Western blot analysis. It counts as functional, cell-based.
Assay [17] deals with K562. As to the kind of experiment: Effect on cell cycle population in human K562 cells at 0.5 uM by DAPI staining based flow cytometric analysis. Format: functional.
For assay [18], the target named is T2, Retinoic acid receptor RXR-beta (Homo sapiens) (UniProt P28702).
T2 sequence (whole entry): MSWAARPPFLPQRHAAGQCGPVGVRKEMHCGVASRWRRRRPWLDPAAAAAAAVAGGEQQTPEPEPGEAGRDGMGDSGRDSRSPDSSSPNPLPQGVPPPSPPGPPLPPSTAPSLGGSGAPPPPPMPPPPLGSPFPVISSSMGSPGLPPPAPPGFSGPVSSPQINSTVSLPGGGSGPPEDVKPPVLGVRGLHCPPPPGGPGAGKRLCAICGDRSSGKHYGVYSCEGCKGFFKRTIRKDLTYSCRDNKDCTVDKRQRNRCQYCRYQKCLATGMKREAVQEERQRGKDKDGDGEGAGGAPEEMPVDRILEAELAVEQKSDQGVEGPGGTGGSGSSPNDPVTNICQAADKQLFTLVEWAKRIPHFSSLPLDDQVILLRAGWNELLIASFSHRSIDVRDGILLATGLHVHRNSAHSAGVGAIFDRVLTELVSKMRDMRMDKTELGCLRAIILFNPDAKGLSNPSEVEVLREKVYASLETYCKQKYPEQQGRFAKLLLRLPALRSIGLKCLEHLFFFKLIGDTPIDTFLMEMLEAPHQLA
As to the kind of experiment: Agonist activity at Gal4-fused full length RXRbeta LBD (unknown origin) transfected in HEK293T cells co-transfected with pG5luc reporter and Renilla-luc at 0.1 to 1 uM incubated for 12 hrs by luciferase reporter gene assay. It counts as cell-based. The settings on record: dose 0.1-1 µM.

In assay [19] the test system is NB-4. In words: Induction of apoptosis in human NB4 cells at 2 uM incubated for 3 hrs by Western blot analysis. Format: functional, cell-based.
Assay [20] concerns ATRA-resistant NB4-LR2. In words: Induction of mitosis in human ATRA-resistant NB4-LR2 cells assessed as upregulation of pT210-PLK1 expression at 2 uM measured after 3 hrs by Western blot analysis. It counts as functional, cell-based.
The test system of assay [21] is ATRA-resistant NB4-LR2. As to the kind of experiment: Induction of apoptosis in human ATRA-resistant NB4-LR2 cells assessed as increase in cleaved-PARP expression at 2 uM incubated for 3 to 24 hrs by Western blot analysis. Particulars: time 3-24 hrs. It counts as functional, cell-based.

The source made the active and inactive calls. The rule behind the calls is not given here.

Sequence of Oxysterols receptor LXR-beta (Homo sapiens) (P55055 whole entry, the tested form may be a part): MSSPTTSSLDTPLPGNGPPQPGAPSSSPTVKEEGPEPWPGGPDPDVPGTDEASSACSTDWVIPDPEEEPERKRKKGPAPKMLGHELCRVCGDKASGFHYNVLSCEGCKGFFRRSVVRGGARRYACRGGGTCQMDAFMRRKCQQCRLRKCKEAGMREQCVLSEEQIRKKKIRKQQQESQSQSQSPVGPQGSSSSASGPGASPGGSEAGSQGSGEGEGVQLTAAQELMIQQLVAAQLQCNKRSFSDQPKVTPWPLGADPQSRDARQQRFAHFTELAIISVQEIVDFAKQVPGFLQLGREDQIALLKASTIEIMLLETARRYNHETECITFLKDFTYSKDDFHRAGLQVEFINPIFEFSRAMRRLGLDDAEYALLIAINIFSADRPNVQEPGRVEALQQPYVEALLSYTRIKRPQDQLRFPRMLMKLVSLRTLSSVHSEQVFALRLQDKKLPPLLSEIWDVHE
Sequence of Oxysterols receptor LXR-alpha (Homo sapiens) (Q13133 whole entry, the tested form may be a part): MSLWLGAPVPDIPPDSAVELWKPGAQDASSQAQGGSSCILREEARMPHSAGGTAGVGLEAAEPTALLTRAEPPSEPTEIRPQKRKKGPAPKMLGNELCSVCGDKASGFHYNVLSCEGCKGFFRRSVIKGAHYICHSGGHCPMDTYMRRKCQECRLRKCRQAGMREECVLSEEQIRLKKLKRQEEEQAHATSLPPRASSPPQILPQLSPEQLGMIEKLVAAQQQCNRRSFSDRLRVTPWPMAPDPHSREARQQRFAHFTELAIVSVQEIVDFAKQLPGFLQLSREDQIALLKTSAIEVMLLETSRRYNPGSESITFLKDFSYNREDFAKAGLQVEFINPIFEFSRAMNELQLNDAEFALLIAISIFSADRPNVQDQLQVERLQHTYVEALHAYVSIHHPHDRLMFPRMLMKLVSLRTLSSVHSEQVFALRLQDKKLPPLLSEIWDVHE

As usually defined, the EC50 is the concentration at which the effect is half-maximal. Take `Cc1cc2c(cc1C(=O)/C(Br)=C\c1ccc(C(=O)O)cc1)C(C)(C)CCC2(C)C`: the Activity in assay [1] is 0.49%; in assay [7], “Minimal_effect”; in assay [9] it was “Minimal_effect”; in the assay with K562 [10], 2.02%; in the assay on NB-4 [13], 14%; with K562 [15], 7.14%. In addition, the Activity result in assay [18] was “Weak_effect”. Besides, the viability at 2 µM in the assay on K562 [2] is 88.8%. Besides, the result with HeLa [3], in the assay with ATRA-resistant NB4-LR2 [4], in the assay on ATRA-resistant NB4-LR2 [11], in the assay on NB-4 [12], in the assay with NB-4 [14] and with NB-4 [16] was Active. Further, the result in the assay with ATRA-resistant NB4-LR2 [20] and in the assay with ATRA-resistant NB4-LR2 [21] was Active. Besides, the result with K562 [5], with HeLa [8], in the assay on Jurkat, with K562 [17] and in the assay on NB-4 [19] was inactive. In assay [6], the EC50 is 419 nM.

On to `Cc1cc2c(cc1C(=O)/C(Br)=C/c1ccc(C(=O)O)cc1)C(C)(C)CCC2(C)C`, for which the Activity is listed as 1.44% in assay [1]; “Minimal_effect” in [7]; “Minimal_effect” in assay [9]; 2.27% in the assay on K562 [10]; 13% with NB-4 [13]; 7.92% in the assay on K562 [15]. Further, the Activity result in assay [18] was “Weak_effect”. For the same compound, the viability at 2 µM in the assay with K562 [2] stood at 88.6%. For the same compound, the outcome in the assay with HeLa [3], with ATRA-resistant NB4-LR2 [4], with ATRA-resistant NB4-LR2 [11], in the assay with NB-4 [12], in the assay on NB-4 [14] and in the assay on NB-4 [16] was Active. Moreover, the outcome in the assay with ATRA-resistant NB4-LR2 [20] and with ATRA-resistant NB4-LR2 [21] was Active. The outcome in the assay with K562 [5], with HeLa [8], in the assay on Jurkat, in the assay on K562 [17] and in the assay on NB-4 [19] was inactive. Further, the EC50 in assay [6] came out at 424 nM.

These data come from ChEMBL document CHEMBL6134780, “Halogenated retinoid derivatives as dual RARα and RXRα modulators for treating acute promyelocytic leukemia cells” (Eur J Med Chem, 2024).
